Entries after “also recorded” stand apart in the source; their conditions may differ.

Data set [1] deals with NGF-dependent PC12 cell differentiation. Description: PC12 NGF-dependent neurite outgrowth. Type of data set: cell-based. As to conditions: 500 pM NGF; for IC50: read-out: IC50 PC12 neurite outgrowth, 72 h, 100 μmol/L to 31.6 nmol/L, n = 3.
For data set [2], the target named is Mouse NGF (Mus musculus, UniProt P01139). Briefly: SPR binding affinity of analogs to immobilized NGF. As to conditions: read-out: KD, binding affinity to immobilized NGF, two-site steady-state analysis, 0.70-200 μmol/L, 25 °C, mean of triplicate. (In general: Surface plasmon resonance follows binding to a sensor surface in real time, without labels.)
Sequence of Mouse NGF (P01139 122-241): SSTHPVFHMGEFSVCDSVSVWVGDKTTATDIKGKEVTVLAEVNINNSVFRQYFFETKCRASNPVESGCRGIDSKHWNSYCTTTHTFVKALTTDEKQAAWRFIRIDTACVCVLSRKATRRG
Data set [3] addresses immobilized TrkA (Homo sapiens, UniProt P04629). Briefly: SPR binding to immobilized TrkA.
Data set [4] relates to PC12 cells. Briefly: PC12 toxicity assay. Type of data set: cell-based. The conditions noted are these: 100 μmol/L, 72 h, absence of NGF.

Sequence of immobilized TrkA (P04629 33-796): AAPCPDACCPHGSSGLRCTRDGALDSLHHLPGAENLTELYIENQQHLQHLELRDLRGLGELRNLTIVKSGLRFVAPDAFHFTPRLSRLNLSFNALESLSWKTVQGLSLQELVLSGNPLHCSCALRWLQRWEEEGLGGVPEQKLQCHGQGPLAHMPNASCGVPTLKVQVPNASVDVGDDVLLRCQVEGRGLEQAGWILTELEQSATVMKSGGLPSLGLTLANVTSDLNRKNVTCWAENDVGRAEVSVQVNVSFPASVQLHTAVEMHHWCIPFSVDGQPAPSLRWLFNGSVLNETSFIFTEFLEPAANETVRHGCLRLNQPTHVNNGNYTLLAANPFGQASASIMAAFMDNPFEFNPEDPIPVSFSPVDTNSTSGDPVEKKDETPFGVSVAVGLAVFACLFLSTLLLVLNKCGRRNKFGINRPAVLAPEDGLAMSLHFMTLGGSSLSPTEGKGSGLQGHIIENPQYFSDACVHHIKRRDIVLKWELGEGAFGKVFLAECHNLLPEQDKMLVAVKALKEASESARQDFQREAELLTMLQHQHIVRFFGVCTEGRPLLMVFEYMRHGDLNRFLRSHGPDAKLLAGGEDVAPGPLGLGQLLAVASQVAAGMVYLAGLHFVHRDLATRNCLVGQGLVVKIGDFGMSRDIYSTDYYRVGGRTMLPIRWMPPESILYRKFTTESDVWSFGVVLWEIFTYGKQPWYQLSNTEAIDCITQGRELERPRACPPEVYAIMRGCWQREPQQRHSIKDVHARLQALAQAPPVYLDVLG

For `Cc1cc2nc3c(=O)[nH]c(=O)nc-3n(C)c2cc1C=O` [Ro 08‐2750], the IC50 (usually the concentration that inhibits the measured activity by half) in data set [1] stood at 12 µM. Further, the Kd in data set [2] was 32.4 µM. For the same compound, the “binding to immobilized TrkA” value in data set [3] is “none showed binding; also recorded: do not bind to TrkA”.

For the compound `O=C(O)c1ccc(Cl)c(N2C(=O)c3ccc4c(=O)n5c6ccc([N+](=O)[O-])cc6nc5c5ccc(c3c45)C2=O)c1` [BVNP‐0197, 4‐Chloro‐3‐{6‐nitro‐11,16,18‐trioxo‐3,10,17‐triazahexacyclo[13.6.2.0^2,^10.0^4,^9.0^12,^22.0^19,^23]tricosa‐1(21),2,4,6,8,12,14,19,22‐nonaen‐17‐yl}benzoic acid], the “NGF-mediated PC12 cell process formation” value in data set [1] (increasing concentrations 0-100 μmol/L) is listed as “significantly decreased”. In data set [4], the “PC12 cell count and morphology versus control” value is “did not significantly differ from untreated cells”.

On to `Cn1c2ccc(NC(=O)c3ccccc3)cc2c(=O)n2nc(C(=O)O)cc12` [PD 90780, 7‐(benzolylamino)‐4,9‐dihydro‐4‐methyl‐9‐oxo‐pyrazolo[5,1‐b]quinazoline‐2‐carboxylic acid], for which, in data set [1], the IC50 turned out to be 33.2 µM. The Kd in data set [2] was 35.8 µM. In data set [3], the “binding to immobilized TrkA” value was “none showed binding; also recorded: do not bind to TrkA”.

These data come from PMC5625151 (Pharmacology Research & Perspectives, 2017).
